Results as given in patent publication US20260364079A1 (Principia Biopharma Inc., priority 2022, published 2026).
Entries after “also recorded” stand apart in the source; their conditions may differ.

Assays:
[1] = system: immune thrombocytopenia; test: mouse model of immune thrombocytopenia; format: in vivo; conditions: mouse ITP model
[2] = system: Fc receptor signaling; test: in vitro antibody (IgG, IgE) mediated activation of immune cells via Fc receptor signaling; format: cell-based
[3] = in comparison to first and second generation BTKi; cited from earlier work
[4] = humans, oral administration; cited from earlier work

CC(C)(C=C(C#N)C(=O)N1CCC[C@@H](n2nc(-c3ccc(Oc4ccccc4)cc3F)c3c(N)ncnc32)C1)N1CCN(C2COC2)CC1 (mixture of isomers) [rilzabrutinib, (R)-2-[3-[4-amino-3-(2-fluoro-4-phenoxy-phenyl)pyrazolo[3,4-d]pyrimidin-1-yl]piperidine-1-carbonyl]-4-methyl-4-[4-(oxetan-3-yl)piperazin-1-yl]pent-2-enenitrile]
platelet loss (consumption) [1]: reduction in platelet loss; also recorded: significant dose dependent reduction of platelet-loss
antibody (IgG, IgE) mediated activation of immune cells via Fc receptor signaling [2]: blocks antibody (IgG, IgE) mediated activation of immune cells via Fc receptor signaling
cross-reactivity with other molecules [3]: minimal cross-reactivity with other molecules and is low risk for off-target effects
pharmacokinetics variability [4]: variable pharmacokinetics
